Consider 13 molecules from patent US10369138B2, “Monobactam organic compounds for the treatment of bacterial infections” (Novartis AG, priority 2014, dated 2019).

Structures are written as SMILES. ≈ marks a conversion by molar mass, not a printed value. Like-named read-outs stand apart in the source and are kept apart here.

The subject of one assay is E. coli containing KPC-2. As to the kind of experiment: MIC by broth microdilution, E. coli containing KPC-2 (Ec KPC2 Iso). It counts as cell-based. The settings on record: Escherichia coli, read-out: Ec KPC2 Iso (MIC), E. coli containing KPC-2 (carbapenemase from Klebsiella pneumoniae). As to the method:
(§1) Bacterial isolates were cultivated from −70° C. frozen stocks by two consecutive overnight passages at 35° C. in ambient air on 5% blood agar (Remel, Lenexa, Kans.). Quality control and P. aeruginosa ATCC 27853) is from the American Type Culture Collection (ATCC; Rockville, Md.) and PAO1 was received from Dr. K. Poole.
Strain NB27273 (BW25113 pspB::Km^r) was obtained from the Keio transposon insertion collection. The strain has the pspB gene replaced by a kanamycin resistance marker (BW25113 pspB::Km^r). This strain was cured of the transposon in pspB via FLP recombinase using published methodology. The resulting strain, BW25113 pspB, was used as a host for multicopy vectors expressing key β-lactamases. Multicopy plasmids directing constitutive expression of β-lactamases were established as follows: Synthetic, codon optimized genes encoding E. coli KPC2 and SHV12 β-lactamases were made by DNA2.0 (Palo Alto, Calif.). Each of the synthetic fragments were designed to contain NotI and NcoI restriction sites at their termini, allowing ligation into a NotI/NcoI digested pET28a(+) derivative for protein expression. […] The codon optimized nucleotide sequences and relevant primer recognition information is shown below:
The PCR products were then digested with XhoI and EcoRI and ligated into similarly digested plasmid pAH63-pstS(BlaP). Plasmid pAH63-pstS(BlaP) is a derivative of plasmid pAH63 (J Bacteriol: 183(21): 6384-6393) made by cloning the TEM-1 (bla) promoter and signal peptide encoding region from plasmid pBAD (J Bacteriol. 1995 July 177(14):4121-30) into plasmid pAH63. This fragment was PCR amplified from pBAD using primer pair E192 (ttca[…]) (SEQ ID NO:13) and E194 ([…]) (SEQ ID NO:14), digested with PstI and BamHI and inserted into similarly digested plasmid pAH63. Therefore, expression of β-lactamases from pAH63-pstS(BlaP) based constructs is constitutive and the signal sequence is provided to direct these proteins to the periplasm. Plasmid pAH63 based vectors are used for insertion into the genome in single copy, however, to provide higher expression levels to allow more sensitive detection of the susceptibility of compounds to the β-lactamases, the expression inserts contained in these vectors were moved to the replicative multicopy vector pBAD-Kan (J Bacteriol. 1995 July 177(14):4121-30). To accomplish this, the inserts encompassing the β-lactamase genes, with the associated TEM promoter and signal sequences, were PCR amplified from their corresponding vectors using primer E269 (ccg[…]) (SEQ ID NO:15) and E202 (aatc[…]) (SEQ ID NO:16) for the KPC2 construct and E204 (aatc[…]) (SEQ ID NO:17) for the SHV12 construct. These fragments were then digested with XbaI and EcoRI, and each was inserted into pBAD18-kan that had been digested with the same enzymes to generate a pair of multicopy vectors expressing KPC2 and SHV12 respectively. These vectors were transformed into BW25113 pspB to generate strains NB27273-CDY0033 (expressing KPC2) and NB27273-CDY0030 (expressing SHV12). The pBAD18-kan vector also contains the TEM promoter region and signal sequence, (but lacks any intact β-lactamase genes) and was transformed into BW25113 pspB using standard protocols to generate the control strain NB27273-CDY0026. Expression of the β-lactamases was confirmed by verifying decreased susceptibility to example test antibiotics that are known substrates of KPC2 or SHV12. Susceptibility Testing
Minimal Inhibitory Concentrations (MICs) were determined by the broth microdilution method in accordance with Clinical and Laboratories Institute (CLSI) guidelines. In brief, fresh overnight bacterial cultures were suspended in sterile saline, and adjusted to a 0.5 McFarland turbidity standard. Bacterial suspensions were then diluted in cation adjusted Mueller-Hinton Broth (MHB II; BBL) to yield a final inoculum of approximately 5×10^5 colony-forming units (CFU)/mL. […]
On the technique in general: In broth dilution the organism is exposed to a series of concentrations in liquid medium.

In the next assay the test system is E. coli strain 25922. As to the kind of experiment: MIC by broth microdilution, E. coli strain 25922. The assay is classed as cell-based. How it is done: as §1
Minimal Inhibitory Concentrations (MICs) were determined by the broth microdilution method in accordance with Clinical and Laboratories Institute (CLSI) guidelines. In brief, fresh overnight bacterial cultures were suspended in sterile saline, and adjusted to a 0.5 McFarland turbidity standard. Bacterial suspensions were then diluted in cation adjusted Mueller-Hinton Broth (MHB II; BBL) to yield a final inoculum of approximately 5×10^5 colony-forming units (CFU)/mL. A master plate of antibiotics was prepared at a concentration equivalent to hundred-fold the highest desired final concentration in 100% dimethyl sulfoxide (DMSO). The master antibiotic plate was then diluted by serial twofold dilution with a multichannel pipette. The resulting dilution series of compounds were diluted 1:10 with sterile water leading to a 10% DMSO final concentration. A volume of 10 μL of the drug dilution series was transferred to 96-well assay plates. Assay plates were inoculated with 90 μL of bacterial suspensions and incubated at 35-37° C. for 20 hrs. The assay plates were read using a microtiter plate reader (Molecular Devices) at 600 nm as well as by visual observation with a reading mirror. The lowest concentration of the compound that prevented visible growth was recorded as the MIC. Performance of the assay was monitored by testing aztreonam against laboratory quality control strains in accordance with guidelines of the CLSI.

[1] abbreviates: Escherichia coli, 25922, E. coli strain 25922, read-out: Ec 25922 (MIC).

A word on the MIC: it is the smallest concentration in the dilution series that meets the test's criterion for growth inhibition. As to `N=C(NCc1cnn(C[C@@H]2[C@H](NC(=O)/C(=N\OC3(C(=O)O)CC3)c3csc(N)n3)C(=O)N2S(=O)(=O)O)n1)N[C@@H]1CCNC1` (stereo in doubt) [Example 142, 1-(((Z)-(1-(2-aminothiazol-4-yl)-2-oxo-2-(((3S,4R)-2-oxo-4-((4-((3-(®-pyrrolidin-3-yl)guanidino)methyl)-2H-1,2,3-triazol-2-yl)methyl)-1-sulfoazetidin-3-yl)amino)ethylidene)amino)oxy)cyclopropanecarboxylic acid], the MIC with E. coli containing KPC-2 was 0.25 µg/mL (≈ 0.39 µM); in the assay with E. coli strain 25922 (setting [1]), 0.5 µg/mL (≈ 0.78 µM).
With `CC(C)(O/N=C(\C(=O)N[C@@H]1C(=O)N(S(=O)(=O)O)[C@@H]1CN1CCOC1=O)c1csc(N)n1)C(=O)O` [Example 2, 2-(((Z)-(1-(2-aminothiazol-4-yl)-2-oxo-2-(((3S,4R)-2-oxo-4-((2-oxooxazolidin-3-yl)methyl)-1-sulfoazetidin-3-yl)amino)ethylidene)amino)oxy)-2-methylpropanoic acid], the MIC is 0.5 µg/mL (≈ 0.961 µM) in the assay on E. coli containing KPC-2 and 1 µg/mL (≈ 1.92 µM) with E. coli strain 25922 (setting [1]).
Consider `CC(C)(O/N=C(\C(=O)N[C@@H]1C(=O)N(S(=O)(=O)O)[C@@H]1CN1CCNC1=O)c1csc(N)n1)C(=O)O` [Example 3, 2-(((Z)-(1-(2-aminothiazol-4-yl)-2-oxo-2-(((3S,4R)-2-oxo-4-((2-oxoimidazolidin-1-yl)methyl)-1-sulfoazetidin-3-yl)amino)ethylidene)amino)oxy)-2-methylpropanoic acid], for which the MIC with E. coli containing KPC-2 stood at 1 µg/mL (≈ 1.92 µM); in the assay with E. coli strain 25922 (setting [1]) it was 2 µg/mL (≈ 3.85 µM).
On to `CC(C)(O/N=C(\C(=O)N[C@@H]1C(=O)N(S(=O)(=O)O)[C@@H]1Cn1nnc(CNC(=N)N)n1)c1csc(N)n1)C(=O)O` [Example 5, 2-(((Z)-(1-(2-aminothiazol-4-yl)-2-(((2R,3S)-2-((5-(guanidinomethyl)-2H-tetrazol-2-yl)methyl)-4-oxo-1-sulfoazetidin-3-yl)amino)-2-oxoethylidene)amino)oxy)-2-methylpropanoic acid], for which the results for the MIC in the assay on E. coli containing KPC-2 and with E. coli strain 25922 (setting [1]) were 4 µg/mL (≈ 6.96 µM) and 1 µg/mL (≈ 1.74 µM), respectively.
With `CC(C)(O/N=C(\C(=O)N[C@@H]1C(=O)N(S(=O)(=O)O)[C@@H]1Cn1nnnc1CN)c1csc(N)n1)C(=O)O` [Example 6, 2-(((Z)-(2-(((2R,3S)-2-((5-(aminomethyl)-1H-tetrazol-1-yl)methyl)-4-oxo-1-sulfoazetidin-3-yl)amino)-1-(2-aminothiazol-4-yl)-2-oxoethylidene)amino)oxy)-2-methylpropanoic acid], the MIC in the assay on E. coli containing KPC-2 was determined as 1 µg/mL (≈ 1.88 µM); in the assay on E. coli strain 25922 (setting [1]) it was 4 µg/mL (≈ 7.51 µM).
With `Cc1nnnn1C[C@@H]1[C@H](NC(=O)/C(=N\OC(C)(C)C(=O)O)c2csc(N)n2)C(=O)N1S(=O)(=O)O` [Example 8, 2-(((Z)-(1-(2-aminothiazol-4-yl)-2-(((2R,3S)-2-((5-methyl-1H-tetrazol-1-yl)methyl)-4-oxo-1-sulfoazetidin-3-yl)amino)-2-oxoethylidene)amino)oxy)-2-methylpropanoic acid], the MIC in the assay on E. coli containing KPC-2 and with E. coli strain 25922 (setting [1]) was 2 µg/mL (≈ 3.86 µM) throughout.
For `CC(C)(O/N=C(\C(=O)N[C@@H]1C(=O)N(S(=O)(=O)O)[C@@H]1Cn1cncn1)c1csc(N)n1)C(=O)O` [Example 9, 2-(((Z)-(2-(((2R,3S)-2-((1H-1,2,4-triazol-1-yl)methyl)-4-oxo-1-sulfoazetidin-3-yl)amino)-1-(2-aminothiazol-4-yl)-2-oxoethylidene)amino)oxy)-2-methylpropanoic acid], the MIC in the assay on E. coli containing KPC-2 and in the assay on E. coli strain 25922 (setting [1]) was 1 µg/mL (≈ 1.99 µM) throughout.
Turning to `CC(C)(O/N=C(\C(=O)N[C@@H]1C(=O)N(S(=O)(=O)O)[C@@H]1Cn1cnc(CN)n1)c1csc(N)n1)C(=O)O` [Example 10, 2-(((Z)-(2-(((2R,3S)-2-((3-(aminomethyl)-1H-1,2,4-triazol-1-yl)methyl)-4-oxo-1-sulfoazetidin-3-yl)amino)-1-(2-aminothiazol-4-yl)-2-oxoethylidene)amino)oxy)-2-methylpropanoic acid], the MIC with E. coli containing KPC-2 was 11 µg/mL (≈ 20.7 µM); in the assay on E. coli strain 25922 (setting [1]), 4 µg/mL (≈ 7.53 µM).
For `CC(C)(O/N=C(\C(=O)N[C@@H]1C(=O)N(S(=O)(=O)O)[C@@H]1Cn1cnc(CNC(=N)N)n1)c1csc(N)n1)C(=O)O` [Example 11, 2-(((Z)-(1-(2-aminothiazol-4-yl)-2-(((2R,3S)-2-((3-(guanidinomethyl)-1H-1,2,4-triazol-1-yl)methyl)-4-oxo-1-sulfoazetidin-3-yl)amino)-2-oxoethylidene)amino)oxy)-2-methylpropanoic acid], in that order: 4 µg/mL (≈ 6.97 µM) and 4 µg/mL (≈ 6.97 µM).
The like results for `CC(C)(O/N=C(\C(=O)N[C@@H]1C(=O)N(S(=O)(=O)O)[C@@H]1Cn1ncnc1CN)c1csc(N)n1)C(=O)O` [Example 12, 2-(((Z)-(2-(((2R,3S)-2-((5-(aminomethyl)-1H-1,2,4-triazol-1-yl)methyl)-4-oxo-1-sulfoazetidin-3-yl)amino)-1-(2-aminothiazol-4-yl)-2-oxoethylidene)amino)oxy)-2-methylpropanoic acid] were, in that order, 4 µg/mL (≈ 7.53 µM) and 4 µg/mL (≈ 7.53 µM).
The like results for `CC(C)(O/N=C(\C(=O)N[C@@H]1C(=O)N(S(=O)(=O)O)[C@@H]1Cn1ncnc1CNC(=N)N)c1csc(N)n1)C(=O)O` [Example 13, 2-(((Z)-(1-(2-aminothiazol-4-yl)-2-(((2R,3S)-2-((5-(guanidinomethyl)-1H-1,2,4-triazol-1-yl)methyl)-4-oxo-1-sulfoazetidin-3-yl)amino)-2-oxoethylidene)amino)oxy)-2-methylpropanoic acid] were, in that order, 32 µg/mL (≈ 55.8 µM) and 16 µg/mL (≈ 27.9 µM).
`Nc1nc(/C(=N/OC2(C(=O)O)CC2)C(=O)N[C@@H]2C(=O)N(S(=O)(=O)O)[C@@H]2Cn2ncc(CNC3CNC3)n2)cs1` [Example 103, 1-(((Z)-(1-(2-aminothiazol-4-yl)-2-(((2R,3S)-2-((4-((azetidin-3-ylamino)methyl)-2H-1,2,3-triazol-2-yl)methyl)-4-oxo-1-sulfoazetidin-3-yl)amino)-2-oxoethylidene)amino)oxy)cyclopropanecarboxylic acid]: the MIC in the assay on E. coli strain 25922 (setting [1]) came to 0.25 µg/mL (≈ 0.428 µM).
Turning to `NCC1CN(C[C@@H]2[C@H](NC(=O)/C(=N\OC3(C(=O)O)CC3)c3csc(N)n3)C(=O)N2S(=O)(=O)O)C(=O)N1` (stereo partly drawn) [Example 122, 1-(((Z)-(2-(((2R,3S)-2-((4-(aminomethyl)-2-oxoimidazolidin-1-yl)methyl)-4-oxo-1-sulfoazetidin-3-yl)amino)-1-(2-aminothiazol-4-yl)-2-oxoethylidene)amino)oxy)cyclopropanecarboxylic acid], the MIC with E. coli strain 25922 (setting [1]) is at most 0.06 µg/mL; in the assay on E. coli strain 25922 (Escherichia coli, 25922, read-out: Ec 25922 (MIC)), 0.125 µg/mL (≈ 0.229 µM).
